Measurements taken from patent publication US10874683B2, “N4-hydroxycytidine and derivatives and anti-viral uses related thereto” (Emory University, priority 2016, dated 2020).
≈ marks a conversion by molar mass, not a printed value. Where two headings read alike, the source gives them in different places.

Tests used:
VERO = assay: Cell viability, VERO (MERV screen); assay type: cell-based
MERV = MERV (MOI 0.4) viral inhibition in VERO; assay type: cell-based; conditions: for inhibition at 10 µM: read-out: Viral Inh. 10 uM; for inhibition at 50 µM: read-out: Viral Inh. 50 uM
VEEV [1] = assay: microbe, parasite or virus in culture; assay type: cell-based; conditions: Venezuelan equine encephalitis virus, Astrocyte; for inhibition at 10 µM: read-out: Viral Inh. 10 uM; for inhibition at 50 µM: read-out: Viral Inh. 50 uM
[2] = Cytotoxicity in HG23 cells (Norovirus screen); assay type: cell-based; conditions: human
in vitro = conditions: African green monkey
SARS Coronavirus Orbani = assay: microbe, parasite or virus in culture; assay type: cell-based; conditions: Severe acute respiratory syndrome coronavirus, Vero 76
Norovirus GT1 = Norovirus GT1 antiviral screening in HG23 cells; assay type: cell-based
VEEV [3] = assay: microbe, parasite or virus in culture; assay type: cell-based; conditions: Venezuelan equine encephalitis virus, HeLa; for inhibition at 10 µM: read-out: Viral Inh. 10 uM; for inhibition at 50 µM: read-out: Viral Inh. 50 uM
U2OS cell line = assay: Cell viability, U2OS cell line (Chikungunya screen)
Chikungunya virus = Chikungunya virus (MOI 0.5) viral inhibition in U2OS cell line; assay type: cell-based; conditions: for inhibition at 10 µM: read-out: Viral Inh. 10 uM; for inhibition at 50 µM: read-out: Viral Inh. 50 uM

## CCCCCCCNC(=O)ONc1ccn([C@@H]2O[C@H](CO)[C@H](O)C2O)c(=O)n1 (stereo partly drawn) [drawing 100]
VERO
  Cell Viability 10 uM: 118% ± 15% (n = 4)
  Cell Viability 50 uM: 91% ± 39% (n = 4)
MERV
  inhibition at 10 µM: 86%
  inhibition at 50 µM: 98%

## CCCCCCCOC(=O)ONc1ccn([C@@H]2O[C@H](CO)[C@H](O)C2O)c(=O)n1 (stereo partly drawn) [drawing 97]
VERO
  Cell Viability 10 uM: 84% ± 8% (n = 4)
  Cell Viability 50 uM: 58% ± 2% (n = 4)
MERV
  inhibition at 10 µM: 99%
  inhibition at 50 µM: 99%

## CCCCCCCOC(=O)ONc1ccn([C@@H]2O[C@H](CO)[C@H](O)C2O)c(=O)n1 (stereo partly drawn) [drawing 92]
VEEV [1]
  inhibition at 10 µM: 94%
  inhibition at 50 µM: 100%
Astrocytes
  Cell Viability 10 uM: 99% ± 9% (n = 3)
  Cell Viability 50 uM: 94% ± 10% (n = 3)

## O=c1nc(NO)ccn1[C@@H]1O[C@H](CO)[C@H](O)C1O (stereo partly drawn) [drawing 76]
[2]
  CC50: > 100 µg/mL
In vitro
  CC50: 36 µg/mL (≈ 139 µM)
SARS Coronavirus Orbani
  EC50: < 0.1 µg/mL
Norovirus GT1
  EC50: > 100 µg/mL

## CC(C)OC(=O)[C@H](C)NP(=O)(OC[C@H]1O[C@@H](n2ccc(NO)nc2=O)C(O)[C@H]1O)Oc1ccccc1 (stereo partly drawn) [drawing 98]
VERO
  Cell Viability 10 uM: 103% ± 14% (n = 4)
  Cell Viability 50 uM: 102% ± 36% (n = 4)
MERV
  inhibition at 10 µM: 29%
  inhibition at 50 µM: 85%

## CONc1ccn([C@@H]2O[C@H](CO)[C@H](O)C2O)c(=O)n1 (stereo partly drawn)
In vitro
  CC50: > 100 µg/mL
SARS Coronavirus Orbani
  EC50: > 100 µg/mL

## CCCCCCCOC(=O)ONc1ccn([C@@H]2O[C@H](CO)[C@H](O)C2O)c(=O)n1 (stereo partly drawn) [drawing 87]
VEEV [3]
  EC50: 0.57 µM
  inhibition at 10 µM: 100%
  inhibition at 50 µM: 100%
HeLa
  Cell Viability 10 uM: 116% ± 20% (n = 4)
  Cell Viability 50 uM: 85% ± 8% (n = 4)

## CCCCCCCOC(=O)ONc1ccn([C@@H]2O[C@H](CO)[C@H](O)C2O)c(=O)n1 (stereo partly drawn) [drawing 82]
U2OS cell line
  Cell Viability 10 uM: 93% ± 4% (n = 4)
  Cell Viability 50 uM: 78% ± 8% (n = 4)
Chikungunya virus
  inhibition at 10 µM: 72%
  inhibition at 50 µM: 98%

## CC(C)OC(=O)[C@H](C)NP(=O)(OC[C@H]1O[C@@H](n2ccc(NO)nc2=O)C(O)[C@H]1O)Oc1ccccc1 (stereo partly drawn) [drawing 83]
U2OS cell line
  Cell Viability 10 uM: 99% ± 6% (n = 4)
  Cell Viability 50 uM: 99% ± 8% (n = 4)
Chikungunya virus
  inhibition at 10 µM: 3%
  inhibition at 50 µM: 36%

## CCCCCCCNC(=O)ONc1ccn([C@@H]2O[C@H](CO)[C@H](O)C2O)c(=O)n1 (stereo partly drawn) [drawing 90]
VEEV [3]
  EC50: 6 µM
  inhibition at 10 µM: 93%
  inhibition at 50 µM: 100%
HeLa
  Cell Viability 10 uM: 151% ± 16% (n = 4)
  Cell Viability 50 uM: 126% ± 7% (n = 4)

## CC(C)OC(=O)[C@H](C)NP(=O)(OC[C@H]1O[C@@H](n2ccc(NO)nc2=O)C(O)[C@H]1O)Oc1ccccc1 (stereo partly drawn) [drawing 88]
VEEV [3]
  EC50: 16.2 µM
  inhibition at 10 µM: 73%
  inhibition at 50 µM: 100%
HeLa
  Cell Viability 10 uM: 137% ± 16% (n = 4)
  Cell Viability 50 uM: 134% ± 16% (n = 4)

## O=c1nc(NO)c(F)cn1[C@@H]1O[C@H](CO)[C@H](O)C1O (stereo partly drawn) [drawing 84]
U2OS cell line
  Cell Viability 10 uM: 81% ± 4% (n = 4)
  Cell Viability 50 uM: 53% ± 2% (n = 4)
Chikungunya virus
  inhibition at 10 µM: 8%
  inhibition at 50 µM: 51%

## O=c1nc(NO)ccn1[C@@H]1O[C@H](CO)[C@H](O)C1O (stereo partly drawn) [drawing 81]
U2OS cell line
  Cell Viability 10 uM: 97% ± 5% (n = 4)
  Cell Viability 50 uM: 79% ± 10% (n = 4)
Chikungunya virus
  inhibition at 10 µM: 80%
  inhibition at 50 µM: 100%

## CC1(O)[C@@H](O)[C@@H](CO)O[C@H]1n1ccc(NO)nc1=O (stereo partly drawn)
[2]
  CC50: > 100 µg/mL
In vitro
  CC50: > 100 µg/mL
SARS Coronavirus Orbani
  EC50: > 100 µg/mL
Norovirus GT1
  EC50: > 100 µg/mL

## O=c1nc(NO)c(F)cn1[C@@H]1O[C@H](CO)[C@H](O)C1O (stereo partly drawn) [drawing 89]
VEEV [3]
  inhibition at 10 µM: 61%
  inhibition at 50 µM: 98%
HeLa
  Cell Viability 10 uM: 55% ± 4% (n = 4)
  Cell Viability 50 uM: 36% ± 2% (n = 4)

## CCCCCCCCC(=O)ONc1ccn([C@@H]2O[C@H](CO)[C@H](O)C2O)c(=O)n1 (stereo partly drawn)
In vitro
  CC50: 36 µg/mL (≈ 90.1 µM)
SARS Coronavirus Orbani
  EC50: 0.19 µg/mL (≈ 0.476 µM)

## CCCCCCCNC(=O)ONc1ccn([C@@H]2O[C@H](CO)[C@H](O)C2O)c(=O)n1 (stereo partly drawn) [drawing 95]
VEEV [1]
  inhibition at 10 µM: 51%
  inhibition at 50 µM: 37%
Astrocytes
  Cell Viability 10 uM: 98% ± 12% (n = 3)
  Cell Viability 50 uM: 85% ± 19% (n = 3)

## CCCCCCCOC(=O)ONc1ccn([C@@H]2O[C@H](CO)[C@H](O)C2O)c(=O)n1 (stereo partly drawn) [drawing 78]
In vitro
  CC50: > 100 µg/mL
SARS Coronavirus Orbani
  EC50: 0.28 µg/mL (≈ 0.698 µM)

## CCCCCCCNC(=O)ONc1ccn([C@@H]2O[C@H](CO)[C@H](O)C2O)c(=O)n1 (stereo partly drawn) [drawing 85]
U2OS cell line
  Cell Viability 10 uM: 105% ± 2% (n = 4)
  Cell Viability 50 uM: 96% ± 11% (n = 4)
Chikungunya virus
  inhibition at 10 µM: 14%
  inhibition at 50 µM: 70%

## O=c1nc(NO)ccn1[C@@H]1O[C@H](CO)[C@H](O)C1O (stereo partly drawn) [drawing 86]
VEEV [3]
  EC50: 1.24 µM
  inhibition at 10 µM: 100%
  inhibition at 50 µM: 100%
HeLa
  Cell Viability 10 uM: 116% ± 24% (n = 4)
  Cell Viability 50 uM: 61% ± 8% (n = 4)

## O=c1nc(NO)ccn1[C@@H]1O[C@H](CO)[C@H](O)C1O (stereo partly drawn) [drawing 96]
VERO
  Cell Viability 10 uM: 75% ± 6% (n = 4)
  Cell Viability 50 uM: 47% ± 3% (n = 4)
MERV
  inhibition at 10 µM: 99%
  inhibition at 50 µM: 100%

## O=c1nc(NO)ccn1[C@@H]1O[C@H](CO)[C@H](O)C1O (stereo partly drawn) [drawing 91]
VEEV [1]
  inhibition at 10 µM: 99%
  inhibition at 50 µM: 100%
Astrocytes
  Cell Viability 10 uM: 98% ± 12% (n = 3)
  Cell Viability 50 uM: 86% ± 5% (n = 3)

## CC(C)OC(=O)[C@H](C)NP(=O)(OC[C@H]1O[C@@H](n2ccc(NO)nc2=O)C(O)[C@H]1O)Oc1ccccc1 (stereo partly drawn) [drawing 93]
VEEV [1]
  inhibition at 10 µM: 49%
  inhibition at 50 µM: 96%
Astrocytes
  Cell Viability 10 uM: 102% ± 16% (n = 3)
  Cell Viability 50 uM: 100% ± 17% (n = 3)
